ChEMBL document CHEMBL1136619, “Synthesis of a new family of glycolipidic nitrones as potential antioxidant drugs for neurodegenerative disorders” (Bioorg Med Chem Lett, 2003)

Tested on: neuronal
Assay: Cytotoxic activity in cultured neuronal cells determined using MTT viability assay
Type: functional, cell-based

SMILES: CCCCCCCCCCCCSCC(C)(C)/[N+]([O-])=C/c1ccc(CNC(=O)[C@H](O)[C@@H](O)[C@H](O[C@@H]2O[C@@H](CO)[C@H](O)[C@H](O)[C@@H]2O)[C@H](O)CO)cc1
- Concentration: 400 µM
